Here are results for five compounds from patent US11981658B2, “Substituted aminopyridine compounds as EGFR inhibitors” (YUHAN CORPORATION, priority 2021, dated 2024).

One assay addresses EGFR Del19/T790M/C797S (Homo sapiens, UniProt P00533, C797S/DEL746-750/T790M). Nature of the assay: Biochemical EGFR kinase inhibition assay (Lance Ultra TR-FRET), triple mutant del19/T790M/C797S. In outline: (§1)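 Enzyme reactions lasted 1 hour at room temperature with test compounds between 0.003 and 10 μM, followed by 10 mM EDTA quench.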
(In TR-FRET formats the signal depends on donor and acceptor labels being close together.)

The next assay addresses EGFR L858R/T790M/C797S (Homo sapiens, UniProt P00533, C797S/L858R/T790M). The assay can be described thus: Biochemical EGFR kinase inhibition assay (Lance Ultra TR-FRET), triple mutant L858R/T790M/C797S. In outline: as §1
The target in the next assay is EGFR Del19/C797S (Homo sapiens, UniProt P00533, C797S/DEL746-750). Nature of the assay: Biochemical EGFR kinase inhibition assay (Lance Ultra TR-FRET), double mutant del19/C797S. In outline: as §1
For another assay, the target named is EGFR L858R/C797S (Homo sapiens, UniProt P00533, C797S/L858R). Nature of the assay: Biochemical EGFR kinase inhibition assay (Lance Ultra TR-FRET), double mutant L858R/C797S. In outline: as §1
Chain of EGFR L858R/C797S (P00533 25-1210 C797S/L858R): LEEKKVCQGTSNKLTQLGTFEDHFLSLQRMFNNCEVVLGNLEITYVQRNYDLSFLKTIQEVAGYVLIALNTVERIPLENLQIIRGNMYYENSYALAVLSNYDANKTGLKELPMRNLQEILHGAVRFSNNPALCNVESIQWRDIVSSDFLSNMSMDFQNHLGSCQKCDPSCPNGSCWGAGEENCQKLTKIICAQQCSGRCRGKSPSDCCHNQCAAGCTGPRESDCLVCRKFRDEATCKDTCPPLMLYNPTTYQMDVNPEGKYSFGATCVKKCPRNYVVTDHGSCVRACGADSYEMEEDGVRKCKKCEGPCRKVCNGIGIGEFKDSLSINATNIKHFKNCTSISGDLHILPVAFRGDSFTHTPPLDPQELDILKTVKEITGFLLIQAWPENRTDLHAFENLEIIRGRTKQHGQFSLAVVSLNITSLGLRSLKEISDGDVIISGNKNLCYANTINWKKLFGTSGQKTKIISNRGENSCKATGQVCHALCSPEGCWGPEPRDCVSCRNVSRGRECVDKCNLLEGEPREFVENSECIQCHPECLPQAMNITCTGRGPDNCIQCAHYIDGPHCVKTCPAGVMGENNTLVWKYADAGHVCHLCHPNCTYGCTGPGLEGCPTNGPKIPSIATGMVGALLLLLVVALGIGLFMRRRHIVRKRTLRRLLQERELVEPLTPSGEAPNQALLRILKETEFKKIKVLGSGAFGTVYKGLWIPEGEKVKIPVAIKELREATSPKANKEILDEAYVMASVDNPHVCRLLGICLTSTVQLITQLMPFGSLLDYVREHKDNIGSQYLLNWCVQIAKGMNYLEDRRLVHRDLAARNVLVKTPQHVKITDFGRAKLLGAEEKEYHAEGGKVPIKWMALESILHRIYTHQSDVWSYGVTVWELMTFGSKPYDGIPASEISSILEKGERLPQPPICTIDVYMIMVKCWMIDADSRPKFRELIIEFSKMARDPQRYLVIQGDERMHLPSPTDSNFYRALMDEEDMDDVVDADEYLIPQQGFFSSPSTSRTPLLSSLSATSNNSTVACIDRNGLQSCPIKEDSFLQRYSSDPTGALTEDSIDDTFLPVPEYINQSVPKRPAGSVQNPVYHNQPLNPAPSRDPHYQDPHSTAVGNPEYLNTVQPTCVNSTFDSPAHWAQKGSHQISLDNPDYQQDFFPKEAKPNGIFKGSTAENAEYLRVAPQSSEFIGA
The target in a further assay is EGFR wildtype (WT) (Homo sapiens, UniProt P00533). The assay can be described thus: Biochemical EGFR kinase inhibition assay (Lance Ultra TR-FRET), wildtype. In outline:
as §1

Setting [1] is: IC50 Del19/T790M/C797S (nM), 100 μM ATP.
Setting [2] is: Km ATP, read-out: IC50 Del19/T790M/C797S (nM), Km ATP.
The mark [3] stands for this setting: IC50 L858R/T790M/C797S (nM), 100 μM ATP.
The mark [4] stands for this setting: Km ATP, read-out: IC50 L858R/T790M/C797S (nM), Km ATP.
Where [5] appears, read: IC50 Del19/C797S (nM), 100 μM ATP.
Setting [6] is: Km ATP, read-out: IC50 Del19/C797S (nM), Km ATP.
[7] abbreviates: IC50 L858R/C797S (nM), 100 μM ATP.
The mark [8] stands for this setting: Km ATP, read-out: IC50 L858R/C797S (nM), Km ATP.
Where [9] appears, read: Km ATP, read-out: IC50 WT (nM), Km ATP.

Like-named read-outs stand apart in the source and are kept apart here.

Chain of EGFR Del19/T790M/C797S (P00533 with tags, fused parts or gaps DEL746-750/T790M/C797S): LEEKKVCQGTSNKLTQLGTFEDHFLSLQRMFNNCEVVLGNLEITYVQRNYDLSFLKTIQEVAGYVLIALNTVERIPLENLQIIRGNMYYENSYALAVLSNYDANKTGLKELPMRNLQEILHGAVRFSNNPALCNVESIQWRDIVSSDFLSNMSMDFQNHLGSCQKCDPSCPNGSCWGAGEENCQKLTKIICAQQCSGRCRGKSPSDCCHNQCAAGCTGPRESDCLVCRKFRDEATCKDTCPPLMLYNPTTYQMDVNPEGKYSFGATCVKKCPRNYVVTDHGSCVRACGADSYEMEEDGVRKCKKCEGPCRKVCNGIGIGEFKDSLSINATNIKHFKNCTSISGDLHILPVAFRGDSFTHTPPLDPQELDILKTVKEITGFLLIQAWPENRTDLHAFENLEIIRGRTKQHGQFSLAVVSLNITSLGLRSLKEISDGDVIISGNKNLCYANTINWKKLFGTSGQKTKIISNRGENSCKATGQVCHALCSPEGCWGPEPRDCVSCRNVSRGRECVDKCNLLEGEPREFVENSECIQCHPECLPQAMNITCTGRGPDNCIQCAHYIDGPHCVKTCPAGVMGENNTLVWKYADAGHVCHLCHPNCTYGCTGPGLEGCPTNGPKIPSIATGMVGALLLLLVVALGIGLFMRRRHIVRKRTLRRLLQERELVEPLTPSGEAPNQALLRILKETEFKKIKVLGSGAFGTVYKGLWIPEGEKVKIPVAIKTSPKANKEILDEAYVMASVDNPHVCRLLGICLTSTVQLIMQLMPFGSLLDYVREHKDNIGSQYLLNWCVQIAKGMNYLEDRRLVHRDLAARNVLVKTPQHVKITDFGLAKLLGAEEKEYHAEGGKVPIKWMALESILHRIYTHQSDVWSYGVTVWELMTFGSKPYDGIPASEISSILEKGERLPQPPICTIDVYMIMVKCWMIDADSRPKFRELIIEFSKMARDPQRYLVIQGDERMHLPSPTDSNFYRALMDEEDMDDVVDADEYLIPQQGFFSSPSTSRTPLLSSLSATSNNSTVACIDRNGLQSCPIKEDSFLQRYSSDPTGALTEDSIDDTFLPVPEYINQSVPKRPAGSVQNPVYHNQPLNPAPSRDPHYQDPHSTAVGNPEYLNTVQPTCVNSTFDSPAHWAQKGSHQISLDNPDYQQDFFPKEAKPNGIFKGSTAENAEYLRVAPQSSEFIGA
Chain of EGFR L858R/T790M/C797S (P00533 25-1210 T790M/C797S/L858R): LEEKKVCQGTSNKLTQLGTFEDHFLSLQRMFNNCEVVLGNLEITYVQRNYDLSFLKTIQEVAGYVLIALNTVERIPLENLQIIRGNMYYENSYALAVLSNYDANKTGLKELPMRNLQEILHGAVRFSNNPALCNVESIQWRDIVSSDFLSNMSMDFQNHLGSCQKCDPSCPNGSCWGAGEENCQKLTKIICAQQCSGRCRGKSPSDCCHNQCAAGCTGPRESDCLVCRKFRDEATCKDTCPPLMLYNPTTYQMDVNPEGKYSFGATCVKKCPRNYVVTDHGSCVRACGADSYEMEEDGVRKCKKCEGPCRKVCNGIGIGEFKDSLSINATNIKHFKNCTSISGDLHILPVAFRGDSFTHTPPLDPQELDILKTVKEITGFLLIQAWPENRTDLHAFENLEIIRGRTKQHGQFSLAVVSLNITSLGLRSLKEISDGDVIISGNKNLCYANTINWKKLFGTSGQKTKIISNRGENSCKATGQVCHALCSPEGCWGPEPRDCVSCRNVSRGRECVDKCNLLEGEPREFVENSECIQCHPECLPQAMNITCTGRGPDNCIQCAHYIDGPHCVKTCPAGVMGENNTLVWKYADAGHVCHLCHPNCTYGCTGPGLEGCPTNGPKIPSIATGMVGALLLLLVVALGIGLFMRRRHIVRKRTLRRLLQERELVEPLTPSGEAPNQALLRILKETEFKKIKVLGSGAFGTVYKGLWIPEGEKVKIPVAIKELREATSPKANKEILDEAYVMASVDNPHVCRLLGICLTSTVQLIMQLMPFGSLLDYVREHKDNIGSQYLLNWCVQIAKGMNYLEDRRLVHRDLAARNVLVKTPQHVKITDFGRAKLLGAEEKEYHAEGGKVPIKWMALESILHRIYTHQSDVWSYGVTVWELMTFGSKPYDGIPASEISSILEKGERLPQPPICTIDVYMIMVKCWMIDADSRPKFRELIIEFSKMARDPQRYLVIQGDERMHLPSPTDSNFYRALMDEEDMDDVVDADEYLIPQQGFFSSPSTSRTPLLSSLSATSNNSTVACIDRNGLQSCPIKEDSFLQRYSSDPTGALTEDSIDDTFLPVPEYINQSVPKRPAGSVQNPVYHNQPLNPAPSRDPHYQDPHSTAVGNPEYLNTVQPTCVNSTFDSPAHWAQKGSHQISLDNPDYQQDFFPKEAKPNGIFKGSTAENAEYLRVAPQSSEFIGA
Chain of EGFR wildtype (WT) (P00533 25-1210): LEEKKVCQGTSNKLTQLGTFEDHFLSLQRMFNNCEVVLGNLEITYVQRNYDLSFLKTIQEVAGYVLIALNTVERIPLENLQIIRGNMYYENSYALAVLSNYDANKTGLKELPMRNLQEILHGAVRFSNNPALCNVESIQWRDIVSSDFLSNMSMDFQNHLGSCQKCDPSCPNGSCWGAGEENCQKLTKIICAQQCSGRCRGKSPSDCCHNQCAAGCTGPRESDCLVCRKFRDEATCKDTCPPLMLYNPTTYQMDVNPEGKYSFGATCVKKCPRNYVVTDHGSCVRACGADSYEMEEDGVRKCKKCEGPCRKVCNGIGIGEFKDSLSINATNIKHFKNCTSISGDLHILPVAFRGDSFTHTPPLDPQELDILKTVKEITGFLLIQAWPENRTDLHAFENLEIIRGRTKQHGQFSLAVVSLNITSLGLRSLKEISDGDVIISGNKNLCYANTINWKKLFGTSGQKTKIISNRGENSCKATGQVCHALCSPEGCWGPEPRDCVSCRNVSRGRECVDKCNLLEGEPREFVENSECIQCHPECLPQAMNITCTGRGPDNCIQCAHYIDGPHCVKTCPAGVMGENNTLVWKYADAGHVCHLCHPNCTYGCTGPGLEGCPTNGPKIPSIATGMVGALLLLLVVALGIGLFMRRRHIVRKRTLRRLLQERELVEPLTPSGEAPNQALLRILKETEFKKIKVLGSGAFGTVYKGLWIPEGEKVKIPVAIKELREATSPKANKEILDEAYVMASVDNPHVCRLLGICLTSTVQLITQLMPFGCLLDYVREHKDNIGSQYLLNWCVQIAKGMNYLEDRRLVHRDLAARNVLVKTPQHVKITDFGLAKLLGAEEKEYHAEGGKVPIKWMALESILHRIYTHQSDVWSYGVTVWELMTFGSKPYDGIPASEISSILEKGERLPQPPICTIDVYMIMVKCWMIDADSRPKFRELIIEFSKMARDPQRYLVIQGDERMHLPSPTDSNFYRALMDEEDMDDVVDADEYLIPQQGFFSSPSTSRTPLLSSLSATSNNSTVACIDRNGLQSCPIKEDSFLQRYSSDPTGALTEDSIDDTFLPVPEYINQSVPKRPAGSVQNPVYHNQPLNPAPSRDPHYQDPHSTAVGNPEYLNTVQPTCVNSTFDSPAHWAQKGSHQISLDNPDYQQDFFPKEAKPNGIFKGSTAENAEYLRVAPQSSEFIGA

For the compound `CS(=O)(=O)N1CCC(C#Cc2cnc(Nc3ccnc(-c4cnn(S(=O)(=O)C5CC5)c4)n3)cc2NC2CCC(CO)CC2)C1` (stereo not shown) [Example 397, ((1s,4s)-4-((2-((2-(1-(Cyclopropylsulfonyl)-1H-pyrazol-4-yl)pyrimidin-4-yl)amino)-5-((1-(methylsulfonyl)pyrrolidin-3-yl)ethynyl)pyridin-4-yl)amino)cyclohexyl)methanol], the IC50 on EGFR Del19/T790M/C797S (setting [1]) came out at 0.9 nM; on EGFR Del19/T790M/C797S (setting [2]), 1.5 nM; against EGFR L858R/T790M/C797S (setting [3]), 1.3 nM; on EGFR L858R/T790M/C797S (setting [4]) it was 0.5 nM; at EGFR Del19/C797S (setting [5]) it was 1.5 nM; at EGFR Del19/C797S (setting [6]) it was 0.7 nM. Besides, the IC50 was 31.3 nM at EGFR L858R/C797S (setting [7]); 1.5 nM on EGFR L858R/C797S (setting [8]); above 10000 nM against EGFR wildtype (WT) (IC50 WT (nM), 100 μM ATP); 16.9 nM on EGFR wildtype (WT) (setting [9]).

Take `Cn1cc(C#Cc2cnc(Nc3ccnc(-c4cnn(S(=O)(=O)C5CC5)c4)n3)cc2N2CCC(C(C)(C)O)CC2)cn1` [Example 11, 2-(1-(2-((2-(1-(Cyclopropylsulfonyl)-1H-pyrazol-4-yl)pyrimidin-4-yl)amino)-5-((1-methyl-1H-pyrazol-4-yl)ethynyl)pyridin-4-yl)piperidin-4-yl)propan-2-ol]: the IC50 was 1.6 nM on EGFR Del19/T790M/C797S (setting [1]); 1.2 nM on EGFR L858R/T790M/C797S (setting [3]); 9.1 nM on EGFR Del19/C797S (setting [5]); 28.5 nM against EGFR L858R/C797S (setting [7]); above 10000 nM against EGFR wildtype (WT) (IC50 WT (nM), 100 μM ATP).

Turning to `Cn1cc(C#Cc2cnc(Nc3ccnc(-c4cnn(S(=O)(=O)C5CC5)c4)n3)cc2N2CCCC(O)CC2)cn1` (stereo not shown) [Example 77, 1-(2-((2-(1-(Cyclopropylsulfonyl)-1H-pyrazol-4-yl)pyrimidin-4-yl)amino)-5-((1-methyl-1H-pyrazol-4-yl)ethynyl)pyridin-4-yl)azepan-4-ol], the IC50 is 0.6 nM against EGFR Del19/T790M/C797S (setting [1]); 0.9 nM at EGFR Del19/T790M/C797S (Km ATP, read-out: IC50 Del19/T790M/C797S (nM) Km ATP); 3.6 nM against EGFR L858R/T790M/C797S (setting [3]); 0.5 nM at EGFR L858R/T790M/C797S (Km ATP, read-out: IC50 L858R/T790M/C797S (nM) Km ATP); 6.3 nM against EGFR Del19/C797S (setting [5]); 5 nM on EGFR Del19/C797S (Km ATP, read-out: IC50 Del19/C797S (nM) Km ATP). Moreover, the IC50 is 357 nM against EGFR L858R/C797S (setting [7]); 14.1 nM at EGFR L858R/C797S (Km ATP, read-out: IC50 L858R/C797S (nM) Km ATP); above 10000 nM at EGFR wildtype (WT) (IC50 WT (nM), 100 μM ATP); 97 nM on EGFR wildtype (WT) (Km ATP, read-out: IC50 WT (nM) Km ATP).

For the compound `Cn1cnc(C#Cc2cnc(Nc3ccnc(-c4cnn(S(=O)(=O)C5CC5)c4)n3)cc2N2CCC(O)CC2)n1` [Example 214, 1-(2-((2-(1-(Cyclopropylsulfonyl)-1H-pyrazol-4-yl)pyrimidin-4-yl)amino)-5-((1-methyl-1H-1,2,4-triazol-3-yl)ethynyl)pyridin-4-yl)piperidin-4-ol], the IC50 against EGFR Del19/T790M/C797S (setting [1]) is 1.4 nM; against EGFR L858R/T790M/C797S (setting [3]) it was 4 nM; on EGFR Del19/C797S (setting [5]), 109 nM; at EGFR L858R/C797S (setting [7]), 274 nM; on EGFR wildtype (WT) (IC50 WT (nM), 100 μM ATP), above 10000 nM.

As to `O=S(=O)(C1CC1)N1CCC(C#Cc2cnc(Nc3ccnc(-c4cnn(S(=O)(=O)C5CC5)c4)n3)cc2N[C@H]2CC[C@@H](CO)CC2)CC1` [Example 390, ((1s,4s)-4-((2-((2-(1-(Cyclopropylsulfonyl)-1H-pyrazol-4-yl)pyrimidin-4-yl)amino)-5-((1-(cyclopropylsulfonyl)piperidin-4-yl)ethynyl)pyridin-4-yl)amino)cyclohexyl)methanol], the IC50 against EGFR Del19/T790M/C797S (setting [1]) is 5.3 nM; at EGFR Del19/T790M/C797S (setting [2]), 2.5 nM; on EGFR L858R/T790M/C797S (setting [3]), 8.3 nM; on EGFR L858R/T790M/C797S (setting [4]), 1.1 nM; at EGFR Del19/C797S (setting [5]), 11.6 nM; at EGFR Del19/C797S (setting [6]), 7.3 nM. Moreover, the IC50 at EGFR L858R/C797S (setting [7]) was 192 nM; at EGFR L858R/C797S (setting [8]) it was 30.1 nM; at EGFR wildtype (WT) (IC50 WT (nM), 100 μM ATP), above 10000 nM; at EGFR wildtype (WT) (setting [9]) it was 47.7 nM.
